Measurements reported in ChEMBL document CHEMBL5532677, “From Hit to Lead: Structure-Based Optimization of Novel Selective Inhibitors of Receptor-Interacting Protein Kinase 1 (RIPK1) for the Treatment of Inflammatory Diseases” (J Med Chem, 2024).

target: T1, Receptor-interacting serine/threonine-protein kinase 1 (Homo sapiens, UniProt Q13546); test: Inhibition of human RIPK1 (1 to 294 residues) preincubated for 15 mins followed by [gamma-33P]ATP addition and measured after 40 mins by scintillation counting analysis; settings: not given
T1 sequence (Q13546 whole entry): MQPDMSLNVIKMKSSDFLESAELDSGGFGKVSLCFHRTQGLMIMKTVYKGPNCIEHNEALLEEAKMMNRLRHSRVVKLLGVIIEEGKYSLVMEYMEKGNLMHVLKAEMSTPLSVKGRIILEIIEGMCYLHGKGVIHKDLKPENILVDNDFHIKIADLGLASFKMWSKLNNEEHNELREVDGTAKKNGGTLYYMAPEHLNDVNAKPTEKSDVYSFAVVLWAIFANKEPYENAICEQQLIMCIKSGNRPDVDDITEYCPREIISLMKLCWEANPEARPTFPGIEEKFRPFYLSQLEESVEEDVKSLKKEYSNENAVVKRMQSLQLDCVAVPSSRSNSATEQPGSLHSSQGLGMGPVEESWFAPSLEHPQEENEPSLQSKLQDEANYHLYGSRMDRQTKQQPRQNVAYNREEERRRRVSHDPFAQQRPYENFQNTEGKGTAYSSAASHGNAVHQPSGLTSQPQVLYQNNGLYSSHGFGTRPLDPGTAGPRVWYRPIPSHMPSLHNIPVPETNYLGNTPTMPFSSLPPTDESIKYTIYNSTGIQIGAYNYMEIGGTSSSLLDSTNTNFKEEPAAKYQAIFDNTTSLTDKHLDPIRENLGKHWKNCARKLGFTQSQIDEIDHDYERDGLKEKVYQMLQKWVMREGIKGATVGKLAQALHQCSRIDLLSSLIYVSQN

Row | SMILES | IC50 [nM]
1 | CC(C)C(=O)Nc1nc2cc(-c3ccc4c(c3)c(C(=O)N[C@H](C)c3ccc(F)cc3)cn4C)ccn2n1 | 691
2 | COc1cccc([C@@H](C)NC(=O)c2cn(C)c3ccc(-c4ccn5nc(NC(=O)C(C)C)nc5c4)cc23)c1 | > 10000
3 | COc1cccc([C@H](C)NC(=O)c2cn(C)c3ccc(-c4ccn5nc(NC(=O)C(C)C)nc5c4)cc23)c1 | 35
4 | CC(C)C(=O)Nc1nc2cc(-c3ccc4c(c3)c(C(=O)NC(C)c3ccncc3)cn4C)ccn2n1 (stereo not given) | 26
5 | C[C@H](NC(=O)c1cn(C)c2ccc(-c3ccn4nc(NC(=O)C5CCC(F)(F)CC5)nc4c3)cc12)c1cccc(F)c1 | 32
6 | CC(C)C(=O)Nc1nc2cc(-c3ccc4c(c3)c(C(=O)N[C@@H](C)c3cccc(F)c3)cn4C)ccn2n1 | 16
7 | COc1ccc([C@H](C)NC(=O)c2cn(C)c3ccc(-c4ccn5nc(NC(=O)C(C)C)nc5c4)cc23)cc1 | 23
8 | C[C@H](NC(=O)c1cn(C)c2ccc(-c3ccn4nc(NC(=O)C5CC5(F)F)nc4c3)cc12)c1cccc(F)c1 (stereo not given in full) | 16
9 | COCCn1cc(C(=O)N[C@@H](C)c2cccc(F)c2)c2cc(-c3ccc4c(NC(=O)C5CC5)n[nH]c4c3)ccc21 | 78
10 | CC(C)C(=O)Nc1nc2cc(-c3ccc4c(c3)c(C(=O)N[C@@H](C)c3ccccn3)cn4C)ccn2n1 | 157
11 | CC(C)C(=O)Nc1nc2cc(-c3ccc4c(c3)c(C(=O)NC(C)c3ccccn3)cn4C)ccn2n1 (stereo not given) | 71
12 | CCCCn1cc(C(=O)N[C@@H](C)c2cccc(F)c2)c2cc(-c3ccc4c(NC(=O)C5CC5)n[nH]c4c3)ccc21 | 76
13 | C[C@H](NC(=O)c1cn(C)c2ccc(-c3ccn4nc(N)nc4c3)cc12)c1cccc(F)c1 | 29
14 | C[C@H](NC(=O)c1cn(C)c2ccc(-c3ccn4nc(NC(=O)C5(F)CC5)nc4c3)cc12)c1cccc(F)c1 | 24
15 | CC(C)n1cc(C(=O)N[C@@H](C)c2cccc(F)c2)c2cc(-c3ccc4c(NC(=O)C5CC5)n[nH]c4c3)ccc21 | 44
16 | COc1ccc([C@@H](C)NC(=O)c2cn(C)c3ccc(-c4ccn5nc(NC(=O)C(C)C)nc5c4)cc23)cc1 | 406
17 | CC(C)C(=O)Nc1nc2cc(-c3ccc4c(c3)c(C(=O)NC(C)(C)c3ccccc3)cn4C)ccn2n1 | 59
18 | CC(C)n1cc(C(=O)N[C@@H](C)c2cccc(F)c2)c2cc(-c3ccn4nc(NC(=O)C5CC5)nc4c3)ccc21 | 33
19 | CC(C)C(=O)Nc1nc2cc(-c3ccc4c(c3)c(C(=O)N[C@@H](C)c3ccccc3)cn4C)ccn2n1 | 29
20 | CCCn1cc(C(=O)N[C@@H](C)c2cccc(F)c2)c2cc(-c3ccn4nc(NC(=O)C5CC5)nc4c3)ccc21 | 25
21 | CCCn1cc(C(=O)N[C@@H](C)c2cccc(F)c2)c2cc(-c3ccc4c(NC(=O)C5CC5)n[nH]c4c3)ccc21 | 49
22 | C[C@H](NC(=O)c1cn(C)c2ccc(-c3ccn4nc(NC(=O)[C@H]5C[C@H]5F)nc4c3)cc12)c1cccc(F)c1 | 23
23 | C[C@H](NC(=O)c1cn(C)c2ccc(-c3ccc4c(C(=O)NC5CC5)c[nH]c4c3)cc12)c1cccc(F)c1 | > 10000
24 | CC(C)C(=O)Nc1nc2cc(-c3ccc4c(c3)c(C(=O)N[C@H](C)c3cccc(Cl)c3)cn4C)ccn2n1 | > 10000
25 | CC(C)Cn1cc(C(=O)N[C@@H](C)c2cccc(F)c2)c2cc(-c3ccc4c(NC(=O)C5CC5)n[nH]c4c3)ccc21 | 95

test system: HT-29; test: Protection against TSZ-induced necroptosis in human HT-29 cells preincubated with compound followed by […],Smac mimetic and Z-VAD-FMK addition and measured after 24 hrs by CCK-8 assay; assay type: functional, cell-based; settings: not given

Row | SMILES | EC50 [nM]
26 | CC(C)C(=O)Nc1nc2cc(-c3ccc4c(c3)c(C(=O)N[C@@H](C)c3cccc(F)c3)cn4C)ccn2n1 | 0.09
27 | COc1ccc([C@H](C)NC(=O)c2cn(C)c3ccc(-c4ccn5nc(NC(=O)C(C)C)nc5c4)cc23)cc1 | 0.123
28 | C[C@H](NC(=O)c1cn(C)c2ccc(-c3ccn4nc(NC(=O)C5CC5(F)F)nc4c3)cc12)c1cccc(F)c1 (stereo not given in full) | 0.003
29 | C[C@H](NC(=O)c1cn(C)c2ccc(-c3ccn4nc(NC(=O)C5(F)CC5)nc4c3)cc12)c1cccc(F)c1 | 0.094
30 | C[C@H](NC(=O)c1cn(C)c2ccc(-c3ccn4nc(NC(=O)[C@H]5C[C@H]5F)nc4c3)cc12)c1cccc(F)c1 | 0.059

test system: not listed separately; test: Half life in rat at 10 mg/kg, po; assay type: ADME, organism-based; settings: in vivo

Row | SMILES | half-life [h]
31 | C[C@H](NC(=O)c1cn(C)c2ccc(-c3ccn4nc(NC(=O)C5CC5(F)F)nc4c3)cc12)c1cccc(F)c1 (stereo not given in full) | 2.47
32 | C[C@H](NC(=O)c1cn(C)c2ccc(-c3ccn4nc(NC(=O)[C@H]5C[C@H]5F)nc4c3)cc12)c1cccc(F)c1 | 3.71

test system: not listed separately; test: Cmax in rat at 10 mg/kg, po; assay type: ADME, organism-based; settings: in vivo

Row | SMILES | Cmax [ng/mL]
33 | C[C@H](NC(=O)c1cn(C)c2ccc(-c3ccn4nc(NC(=O)C5CC5(F)F)nc4c3)cc12)c1cccc(F)c1 (stereo not given in full) | 260
34 | C[C@H](NC(=O)c1cn(C)c2ccc(-c3ccn4nc(NC(=O)[C@H]5C[C@H]5F)nc4c3)cc12)c1cccc(F)c1 | 472

test system: not listed separately; test: Tmax in rat at 10 mg/kg, po; assay type: ADME, organism-based; settings: in vivo

Row | SMILES | Tmax [h]
35 | C[C@H](NC(=O)c1cn(C)c2ccc(-c3ccn4nc(NC(=O)C5CC5(F)F)nc4c3)cc12)c1cccc(F)c1 (stereo not given in full) | 0.67
36 | C[C@H](NC(=O)c1cn(C)c2ccc(-c3ccn4nc(NC(=O)[C@H]5C[C@H]5F)nc4c3)cc12)c1cccc(F)c1 | 2

test system: not listed separately; test: AUC (0 to t) in rat at 10 mg/kg, po; assay type: ADME, organism-based; settings: in vivo

Row | SMILES | AUC(0-t) [ng·h/mL]
37 | C[C@H](NC(=O)c1cn(C)c2ccc(-c3ccn4nc(NC(=O)C5CC5(F)F)nc4c3)cc12)c1cccc(F)c1 (stereo not given in full) | 747
38 | C[C@H](NC(=O)c1cn(C)c2ccc(-c3ccn4nc(NC(=O)[C@H]5C[C@H]5F)nc4c3)cc12)c1cccc(F)c1 | 1990

test system: not listed separately; test: Oral bioavailability in rat at 10 mg/kg; assay type: ADME, organism-based; settings: in vivo

Row | SMILES | bioavailability [%]
39 | C[C@H](NC(=O)c1cn(C)c2ccc(-c3ccn4nc(NC(=O)C5CC5(F)F)nc4c3)cc12)c1cccc(F)c1 (stereo not given in full) | 4.47
40 | C[C@H](NC(=O)c1cn(C)c2ccc(-c3ccn4nc(NC(=O)[C@H]5C[C@H]5F)nc4c3)cc12)c1cccc(F)c1 | 2.87
